Results from paper PMC4526917 (Journal of Experimental Botany, 2015).
Peptide text beside a SMILES is read from it.

Experiments:
[1] = system: F. graminearum conidia and mycelia; assay type: cell-based, Fusarium graminearum; conditions: NBT staining of superoxide; 60 µM peptide (Fig. 6)
U. maydis spores [2] = assay type: cell-based, Ustilago maydis
maize pollen tubes = experiment: Pollen tube burst assay; assay type: cell-based, Zea mays; conditions: for maize pollen tube burst: mean ±SD
Description: The assay was applied as described ([Woriedh et al., 2013]). Briefly, freshly collected pollen was immediately distributed onto Petri dishes containing droplets of 10 µL PGM at different pH values. Pollen tubes started to burst or to grow after about 10min. Pollen tubes were subjected to further studies only if germination rates exceeded 80%. After optimization, PGM at pH 5 was applied to all pollen tube assays. A 10 µL solution of the above peptides or acetonitrile as a negative control was added to each droplet of germinated pollen using a Cell-TramH Air pump (Eppendorf) and a glass micropipette. During this assay, droplets were observed using an Eclipse TE2000 inverted microscope (Nikon) equipped with a 1.4 Megapixel digital AxioCam MRm camera (black and white) and AxioVision digital image processing software (Release 4.8).

U. maydis spores [3] = conditions: for inhibition of germination of Ustilago spores: 24 h, 90 μM
[4] = system: F. graminearum conidia and mycelia; assay type: cell-based, Fusarium graminearum; conditions: 90 µM peptide, after 6h; microscopy
F. graminearum conidia = assay type: cell-based, Fusarium graminearum; conditions: for fungal germination in Fusarium / conidia that did not germinate at all: 90 µM peptide; for fungal germination in Fusarium: 24 hours in PGM, absorbance at 595 nm, germination above 60% taken as threshold; for conidia that did not germinate at all: microscopy; for concentration giving complete suppression of conidia germination: PGM, 24h
U. maydis spores [5] = assay type: cell-based, Ustilago maydis; remark: listed apart in the source
maize pollen tube = system: maize pollen tube; set-up: method as in Amien et al., 2010; conditions: ref Amien et al., 2010; cited from earlier work

Compound: CC(C)C[C@H](NC(=O)[C@H](CS)NC(=O)[C@H](CCCNC(=N)N)NC(=O)CNC(=O)CNC(=O)[C@@H](NC(=O)[C@H](Cc1ccc(O)cc1)NC(=O)CNC(=O)[C@H](CCCCN)NC(=O)CNC(=O)[C@H](CCC(=O)O)NC(=O)[C@H](C)NC(=O)[C@H](CCCNC(=N)N)NC(=O)[C@H](CS)NC(=O)CN)[C@@H](C)O)C(=O)O [ES-c] (H-GCRAEGKGYTGGRCL-OH; N-terminus and C-terminus assumed)
- ROS production in F. graminearum conidia and mycelia [1]: strongly produced ROS
- ROS production in U. maydis spores (U. maydis spores [2]): ROS production was also detected
- maize pollen tube burst (maize pollen tubes; peptide concentration not stated at this place (100nM, 250nM and 500nM applied), PGM pH 5, 5min after application): 29.3±4.2%
- concentration giving complete suppression of spore germination (U. maydis spores [3]): 120 µM
- germination of Ustilago spores (U. maydis spores [3]): 19.1±3.8%
- spores that did not germinate at all (U. maydis spores [3]): Approximately 80%
- inhibition of germination of Ustilago spores (U. maydis spores [3]): 80.9±1.0%
- effect on developed F. graminearum mycelia (24 hpi) [4]: breaking/bursting of cell walls and release of vacuoles
- fungal germination in Fusarium (F. graminearum conidia): 19.1±3.8%
- conidia that did not germinate at all (F. graminearum conidia): Approximately 80%
- concentration giving complete suppression of conidia germination (F. graminearum conidia): 120 µM

Compound: CC[C@H](C)[C@H](NC(=O)CNC(=O)[C@H](CC(=O)O)NC(=O)[C@H](CC(C)C)NC(=O)[C@@H](NC(=O)[C@@H](NC(=O)[C@@H]1CCCN1C(=O)[C@H](CO)NC(=O)[C@@H](NC(=O)[C@H](CC(C)C)NC(=O)[C@H](CS)NC(=O)[C@@H](N)CCCNC(=N)N)[C@@H](C)CC)[C@@H](C)CC)[C@@H](C)O)C(=O)N[C@@H](CC(C)C)C(=O)N[C@@H](CS)C(=O)N[C@@H](Cc1ccc(O)cc1)C(=O)O [ES-d] (H-RCLISPITLDGILCY-OH; N-terminus and C-terminus assumed)
- effect on U. maydis spores (U. maydis spores [5]): burst of swelling spores and excretion of vacuoles and cell components
- ROS production in F. graminearum conidia and mycelia [1]: strongly produced ROS
- ROS production in U. maydis spores (U. maydis spores [2]): ROS production was also detected
- maize pollen tube burst (maize pollen tubes; 500nM peptide in PGM pH 5, measured 5min after application, P < 0.001): 82.5±5.2%
- time after application until pollen tubes started to burst (maize pollen tubes; PGM pH 5, in words): within a few seconds
- concentration giving complete suppression of spore germination (U. maydis spores [3]): 120 µM
- germination of Ustilago spores (U. maydis spores [3]): 20.6±2.1%
- spores that did not germinate at all (U. maydis spores [3]): Approximately 80%
- inhibition of germination of Ustilago spores (U. maydis spores [3]): 78.7±1.0%
- effect on developed F. graminearum mycelia (24 hpi) [4]: breaking/bursting of cell walls and release of vacuoles
- fungal germination in Fusarium (F. graminearum conidia): 20.6±2.1%
- conidia that did not germinate at all (F. graminearum conidia): Approximately 80%
- concentration giving complete suppression of conidia germination (F. graminearum conidia): 120 µM

Compound: AFP2: anti-fungal protein AFP2 from radish (Raphanus sativus) (QKLCQRPSGTWSGVCGNNNACKNQCIRLEKARHGSCNYVFPAHKCICYFPC; UniProt P30230 30-80, looked up)
- effect on maize pollen tube growth behaviour (maize pollen tube): did not affect
